The results in this text go back to patent EP0785936B1, “PHOTOCHROMIC NAPHTHOXAZINE COMPOUNDS” (PPG Industries Ohio, Inc., priority 1994, dated 1996).

This data set is described as follows: Photochromic response of imbibed diethylene glycol bis(allyl carbonate) polymer test squares on an optical bench. The format is physicochemical. The following applies: for Δ OD @ SATURATION: UV exposure continued for 20 minutes; for BLEACH RATE T 1/2: time for absorbance of activated form to reach one half the highest absorbance at 25.7 ± 0.5 °C after removal of activating light. How it is done:
Comparative testing was conducted on the principle product of Example 3 and certain photochromic compounds described in U.S. Patents 4,342,668 and 4,637,698. These compounds were imbibed by thermal transfer into test squares of a polymeric matrix prepared from a diethylene glycol bis(allyl carbonate) composition by the following procedure: Each photochromic compound was dissolved in toluene to form a 4 weight percent solution of the compound. A piece of No. 4 Whatman filter paper was saturated with the toluene solution of the photochromic compound and allowed to air dry. The dried filter paper was placed on one side of the polymer test square, which measured 1/8 inch (0.3 centimeter) x 2 inch (5.1 centimeters) x 2 inch (5.1 centimeters). A piece of untreated filter paper was placed on the other side of the polymer test square and the resulting sandwich placed between two plates of flat aluminum metal plates. The entire assembly was then placed in a 155°C. oven for a time sufficient to thermally transfer the photochromic compound into the polymer test square. […] The imbibed test squares were washed with acetone after removal from the oven.
The imbibed polymer test squares were tested for photochromic response rates on an optical bench. The samples were illuminated by a 150 watt Xenon lamp fitted with a copper sulfate bath and a neutral density filter at an intensity of about one sun. A second beam of light provided by a filtered tungsten lamp arranged to pass through the sample area exposed by the UV source was used to monitor changes in transmission of the sample over different wavelength ranges in the visible region of the spectrum. The intensity of the monitoring beam after passing through the sample was measured by means of an IL-1500 radiometer equipped with a silicon detector head and matching filters.
The Δ OD/min., which represents the sensitivity of the photochromic compound's response to UV light, was measured using photopic filters on the silicon detector. The response of the filtered detector approximated the luminosity curve. The Δ OD was measured over the first five (5) seconds of UV exposure, then expressed on a per minute basis. The saturation optical density (OD) was taken under identical conditions as the Δ OD/min., except UV exposure was continued for 20 minutes. The lambda max reported in Table 2 is the wavelength in the ultraviolet range closest to the visible spectrum or in the threshold range, i.e., 390 to 410 nanometers, of the visible spectrum at which the maximum absorption and activation of the photochromic compound occurs in the polymer matrix test squares.
The bleach rate T 1/2(sec.) is the time interval in seconds for the absorbance of the activated form of the photochromic compounds in the test polymer to reach one half the highest absorbance at 25.7 ± 0.5 °C. after removal of the source of activating light.

Consider “1-propyl-3,3,4,5(or 3,3,5,6)-tetramethyl-9'-methoxycarbonyl-8'-acetoxy-spiro[indoline-2,3'-[3H]naphth[2,1-b]-[1,4]oxazine]”, for which the “Δ OD @ SATURATION” value turned out to be 0.42 and the “BLEACH RATE T 1/2” value came out at 2.27 min.

For `CCCN1c2cc(C)c(C)cc2C(C)(C)C12C=Nc1c(ccc3ncccc13)O2` (centres unmarked) [B, 1-propyl-3,3,5,6-tetramethyl-spiro[indoline-2,3'-[3H]pyrido-[3,2-f][1,4]benzoxazine]], the “Δ OD @ SATURATION” value was 0.36 and the “BLEACH RATE T 1/2” value stood at 1.15 min.

On to “1-propyl-3,3,4,5(or 3,3,5,6)-tetramethyl-spiro[indoline-2,3'-[3H]naphth[2,1-b][1,4]oxazine]”, for which the “Δ OD @ SATURATION” value came to 0.11 and the “BLEACH RATE T 1/2” value turned out to be 0.783 min.

With `CCCN1c2cc(C)c(C)cc2C(C)(C)C12C=Nc1c(ccc3ccc(OC)cc13)O2` (centres unmarked) [A, 1-propyl-3,3,5,6-tetramethyl-9'-methoxy-spiro[indoline-2,3'-[3H]naphth[2,1-b][1,4]oxazine]], the “Δ OD @ SATURATION” value stood at 0.11 and the “BLEACH RATE T 1/2” value was 1.17 min.
